In patent publication US7754228B2, “Cytotoxic T-cell epitopes from Chlamydia” (Novartis Vaccines and Diagnostics, Srl, priority 2002, dated 2010):
Entries after “also recorded” stand apart in the source; their conditions may differ. Like-named read-outs stand apart in the source and are kept apart here.

Test system: HLA A2
Assay type: binding, human
Conditions: for binding to HLA A2 (in words): in vitro binding assay
[1] = 1 μM peptide, RMA-S/A2 cells, peptide and only anti-mouse secondary antibody, FACS mean
[2] = 1 μM peptide, RMA-S/A2 cells, peptide, anti-A2 Mab BB7.2 and secondary antibody, FACS mean
[3] = 100 μM peptide, RMA-S/A2 cells, peptide and only anti-mouse secondary antibody, FACS mean
[4] = 100 μM peptide, RMA-S/A2 cells, peptide, anti-A2 Mab BB7.2 and secondary antibody, FACS mean
[5] = 10 μM peptide, RMA-S/A2 cells, peptide and only anti-mouse secondary antibody, FACS mean
[6] = 10 μM peptide, RMA-S/A2 cells, peptide, anti-A2 Mab BB7.2 and secondary antibody, FACS mean

Sequence	High - B	Δ Mean	Mean 1 [1]	Mean 2 [2]	binding to HLA A2 (in words) (RMA-S/A2 cells)	Mean 1 [3]	Mean 2 [4]	Mean 1	Mean 2	Mean 1 [5]	Mean 2 [6]	rank in the binding assay among five epitopes predicted in protein 4376601 (CH44 to CH48)	ΔMean at high concentrations of peptide (in words) (high peptide concentrations, non-homogeneous fluorescent signal, most likely non-specific effects)
LLLIFNNYL [CH36]	−16	138	163	301	do not seem to bind								
TLWGSFVDV (listed as Chlamydia pneumoniae) [CH21]	121	275			bind to HLA A2	165	440						
YLIVFVLTI [CH59]	−37	123						150	273				
SLLEEHPVV (listed as Chlamydia pneumoniae) [CH52]	89	249			bind to HLA A2; also recorded: positive in the binding assay	147	396						
KMSHFQQAL [CH49]	23	183				134	317						
YLLDFRWPL [CH37]	84	238			bind to HLA A2					164	402		
FLFQLGMQI [CH62]	19	179				126	305						
NLLKRWQFV [CH38]	73	227			bind to HLA A2	170	397						
YLALDPDSV [CH48]		303			bind to HLA A2; also recorded: positive in the binding assay	148	451					strongest epitope using the binding assay	
KLLAFPAFA [CH40]	96	341			bind to HLA A2	214	555						
WLVFFNPFV [CH12]	0	211	204	415	do not seem to bind								
KLWEWLGYL [CH32]	63	217			bind to HLA A2					161	378		
LIQETLLFV [CH24]	75	229			bind to HLA A2	165	394						
ALWKENQAL (listed as Chlamydia pneumoniae) [CH54]	91	251			bind to HLA A2; also recorded: positive in the binding assay	140							
QLLESLAPL [CH4]	58	304			bind to HLA A2	212	516						
WMMGVVLMI [CH45]	51	211			bind to HLA A2					147	358		
SLCAQSSYV (listed as Chlamydia pneumoniae) [CH50]	91	251			bind to HLA A2; also recorded: positive in the binding assay	130	381						
ALWGHNVLL (listed as Chlamydia pneumoniae) [CH55]	98	258			bind to HLA A2; also recorded: positive in the binding assay	153	411						
NLSISVFLL [CH46]	12	172				131	303						
WLFDLRFSV (listed as Chlamydia pneumoniae) [CH22]	73	227			bind to HLA A2					163	390		
YLTSYSPYV (listed as Chlamydia pneumoniae) [CH15]	76	322			bind to HLA A2	235	557						
QLLDEGKEL [CH1]	37	283			bind to HLA A2	206	489						
ILSFLPWLV [CH35]	86	240			bind to HLA A2					171	411		
KVLLGQEWV [CH42]	40	200			bind to HLA A2	136	336						
VLNLFFSAL (listed as Chlamydia pneumoniae) [CH3]	0	224	195	419									Very low ΔMean values

Sequence	High - B	Δ Mean	Mean 1 [1]	Mean 2 [2]	binding to HLA A2 (in words) (RMA-S/A2 cells)	Mean 1 [3]	Mean 2 [4]	Mean 1	Mean 2	Mean 1 [5]	Mean 2 [6]	rank in the binding assay among five epitopes predicted in protein 4376601 (CH44 to CH48)	ΔMean at high concentrations of peptide (in words) (high peptide concentrations, non-homogeneous fluorescent signal, most likely non-specific effects)
VMLFIGLGV [CH60]	−27	133								148	281		
NLSRQAFFA (listed as Chlamydia pneumoniae) [CH51]	19	179				132	311						
FVSKFWFSL [CH57]	−17		127	270									
KLSEQLEAL [CH41]	101	261			bind to HLA A2; also recorded: positive in the binding assay	162	423						
YVVGFIIFL [CH44]	31	191								150	341		
ALMLLNNYV (listed as Chlamydia pneumoniae) [CH20]	138	384			bind to HLA A2	194	578						
FLQRGESFV [CH30]	89	243			bind to HLA A2	155	398						
RLLEIIWGV [CH28]	78	232			bind to HLA A2					158	390		
NLWSHYTDL (listed as Chlamydia pneumoniae) [CH53]	48	209			bind to HLA A2	141	350						
KLLKDHFDL (listed as Chlamydia pneumoniae) [CH34]	81	235			bind to HLA A2	155	390						
YLMQKLQNV [CH29]	111	265			bind to HLA A2	153	418						
VQLAYVFDV (listed as Chlamydia pneumoniae) [CH16]	0	232			do not seem to bind	201	433						
VMLIFEKKV [CH14]	12	258			do not seem to bind	197	455						
VLFLLIRSV [CH61]	−37	123	135	258									
IALLVIFFV [CH18]	0	230			do not seem to bind					198	428		
WLLRDDWLL [CH31]	89	243			bind to HLA A2	165	408						
SILELLQFV [CH5]	71	298			bind to HLA A2					179	477		
NLAGGILSV (listed as Chlamydia pneumoniae) [CH56]	80	240			bind to HLA A2; also recorded: positive in the binding assay	143	383						
LLLTLGYAV (listed as Chlamydia pneumoniae) [CH19]	0	240			do not seem to bind	196	436						
ILLNEVPYV [CH2]	133	372			bind to HLA A2					264	636		
NLAEQVTAL [CH43]		286			bind to HLA A2; also recorded: positive in the binding assay	153	439						
LLMLAISLV [CH33]	0	154	164	318	do not seem to bind								
ILQEAEQMV [CH17]	140	386			bind to HLA A2	185	571						
VIQAFGDFV [CH47]	17	177								125	302		
FLTLAWWFI [CH8]	82	328	204	532	bind to HLA A2								
